Assay results reported in the NIST ThermoML archive (doi:10.1021/je400056z).

Assay: xn = mol fraction of the nth substance listed
Conditions: Liquid, Vibrating tube method

CCCCCCC [heptane] + O=C=O
Conditions	mass density [kg/m3]
342.68 K, 16006 kPa, x2 = 0.0218	661.28
342.68 K, 17003 kPa, x2 = 0.0218	662.36
342.68 K, 18003 kPa, x2 = 0.0218	663.38
342.68 K, 19002 kPa, x2 = 0.0218	664.4
342.68 K, 20005 kPa, x2 = 0.0218	665.4
342.68 K, 21007 kPa, x2 = 0.0218	666.43
342.68 K, 22003 kPa, x2 = 0.0218	667.43
342.68 K, 23010 kPa, x2 = 0.0218	668.42
342.68 K, 24005 kPa, x2 = 0.0218	669.41
342.68 K, 25003 kPa, x2 = 0.0218	670.37
342.71 K, 13106 kPa, x2 = 0.9496	500.65
342.71 K, 13985 kPa, x2 = 0.9496	541.93
342.71 K, 15012 kPa, x2 = 0.9496	579.95
342.71 K, 16000 kPa, x2 = 0.9496	609.5
342.71 K, 17009 kPa, x2 = 0.9496	634.13
342.71 K, 17984 kPa, x2 = 0.9496	654.42
342.71 K, 18996 kPa, x2 = 0.9496	672.31
342.71 K, 19994 kPa, x2 = 0.9496	687.85
342.71 K, 20999 kPa, x2 = 0.9496	701.79
342.71 K, 22001 kPa, x2 = 0.9496	714.18
342.71 K, 23009 kPa, x2 = 0.9496	725.67
342.71 K, 23985 kPa, x2 = 0.9496	735.74
342.71 K, 24518 kPa, x2 = 0.9496	740.87
342.73 K, 8002 kPa, x2 = 0.5085	670.04
342.73 K, 9011 kPa, x2 = 0.5085	673.34
342.73 K, 10003 kPa, x2 = 0.5085	676.47
342.73 K, 11006 kPa, x2 = 0.5085	679.46
342.73 K, 12005 kPa, x2 = 0.5085	682.3
342.73 K, 13011 kPa, x2 = 0.5085	685.03
342.73 K, 14001 kPa, x2 = 0.5085	687.62
342.73 K, 15001 kPa, x2 = 0.5085	690.13
342.73 K, 16006 kPa, x2 = 0.5085	692.58
342.73 K, 17007 kPa, x2 = 0.5085	694.92
342.73 K, 17999 kPa, x2 = 0.5085	697.18
342.73 K, 19004 kPa, x2 = 0.5085	699.4
342.73 K, 20003 kPa, x2 = 0.5085	701.54
342.73 K, 21007 kPa, x2 = 0.5085	703.69
342.73 K, 22001 kPa, x2 = 0.5085	705.73
342.73 K, 23008 kPa, x2 = 0.5085	707.8
342.73 K, 23998 kPa, x2 = 0.5085	709.81
342.73 K, 25003 kPa, x2 = 0.5085	711.79
351.97 K, 7006 kPa, x2 = 0.3148	652.07
351.97 K, 8006 kPa, x2 = 0.3148	654.34
351.97 K, 9004 kPa, x2 = 0.3148	656.45
351.97 K, 10010 kPa, x2 = 0.3148	658.6
351.97 K, 11002 kPa, x2 = 0.3148	660.62
351.97 K, 12003 kPa, x2 = 0.3148	662.65
351.97 K, 13003 kPa, x2 = 0.3148	664.59
351.97 K, 14001 kPa, x2 = 0.3148	666.48
351.97 K, 15008 kPa, x2 = 0.3148	668.29
351.97 K, 15998 kPa, x2 = 0.3148	670.12
351.97 K, 17018 kPa, x2 = 0.3148	671.87
351.97 K, 17988 kPa, x2 = 0.3148	673.47
351.97 K, 19003 kPa, x2 = 0.3148	675.21
351.97 K, 20004 kPa, x2 = 0.3148	676.85
351.97 K, 21004 kPa, x2 = 0.3148	678.45
351.97 K, 22002 kPa, x2 = 0.3148	680.02
351.97 K, 22992 kPa, x2 = 0.3148	681.54
351.97 K, 23999 kPa, x2 = 0.3148	683.05
351.97 K, 25008 kPa, x2 = 0.3148	684.53
352.3 K, 12013 kPa, x2 = 0.7514	641.2
352.3 K, 13001 kPa, x2 = 0.7514	649.87
352.3 K, 14004 kPa, x2 = 0.7514	657.71
352.3 K, 15036 kPa, x2 = 0.7514	665.3
352.3 K, 16003 kPa, x2 = 0.7514	671.66
352.3 K, 17017 kPa, x2 = 0.7514	677.97
352.3 K, 18016 kPa, x2 = 0.7514	683.63
352.3 K, 18998 kPa, x2 = 0.7514	689.01
